Results from the CheMixHub viscosity set.
Values joined by “and” are separate entries in the source; they are usually repeats but may differ in a detail not shown here. Equal entries are not always repeated.

Assay: xn = mol fraction of the nth substance listed

CN(C)C=O + O
Details | viscosity
303.15 K, 101 kPa, x2 = 0.9 | 1.519 mPa·s and 1.516 mPa·s
303.15 K, 101 kPa, x2 = 0.94 | 1.24 mPa·s and 1.24 mPa·s
303.15 K, 101 kPa, x2 = 0.96 | 1.093 mPa·s and 1.091 mPa·s
303.15 K, 101 kPa, x2 = 0.98 | 0.9451 mPa·s and 0.9453 mPa·s
305.15 K, 101 kPa, x1 = 0.0254 | 1.107 mPa·s
305.15 K, 101 kPa, x1 = 0.0555 | 1.335 mPa·s
305.15 K, 101 kPa, x1 = 0.0915 | 1.61 mPa·s
305.15 K, 101 kPa, x1 = 0.1355 | 1.795 mPa·s
305.15 K, 101 kPa, x1 = 0.1904 | 2.021 mPa·s
305.15 K, 101 kPa, x1 = 0.2608 | 2.238 mPa·s
305.15 K, 101 kPa, x1 = 0.2921 | 2.27 mPa·s
305.15 K, 101 kPa, x1 = 0.304 | 2.308 mPa·s
305.15 K, 101 kPa, x1 = 0.3199 | 2.282 mPa·s
305.15 K, 101 kPa, x1 = 0.3544 | 2.262 mPa·s
305.15 K, 101 kPa, x1 = 0.4137 | 2.102 mPa·s
305.15 K, 101 kPa, x1 = 0.4848 | 1.934 mPa·s
305.15 K, 101 kPa, x1 = 0.5714 | 1.619 mPa·s
305.15 K, 101 kPa, x1 = 0.6792 | 1.393 mPa·s
305.15 K, 101 kPa, x1 = 0.8171 | 1.106 mPa·s
308.15 K, 101 kPa, x1 = 0.0254 | 0.985 mPa·s
308.15 K, 101 kPa, x1 = 0.027 | 0.9526 mPa·s
308.15 K, 101 kPa, x1 = 0.0555 | 1.164 mPa·s
308.15 K, 101 kPa, x1 = 0.058 | 1.163 mPa·s
308.15 K, 101 kPa, x1 = 0.0915 | 1.428 mPa·s
308.15 K, 101 kPa, x1 = 0.1355 | 1.583 mPa·s
308.15 K, 101 kPa, x1 = 0.14 | 1.539 mPa·s
308.15 K, 101 kPa, x1 = 0.1904 | 1.823 mPa·s
308.15 K, 101 kPa, x1 = 0.2608 | 1.989 mPa·s
308.15 K, 101 kPa, x1 = 0.2921 | 1.999 mPa·s
308.15 K, 101 kPa, x1 = 0.304 | 2.044 mPa·s
308.15 K, 101 kPa, x1 = 0.3199 | 1.976 mPa·s
308.15 K, 101 kPa, x1 = 0.3544 | 1.985 mPa·s
308.15 K, 101 kPa, x1 = 0.4137 | 1.872 mPa·s
308.15 K, 101 kPa, x1 = 0.4848 | 1.685 mPa·s
308.15 K, 101 kPa, x1 = 0.5714 | 1.424 mPa·s
308.15 K, 101 kPa, x1 = 0.6792 | 1.245 mPa·s
308.15 K, 101 kPa, x1 = 0.8171 | 1.029 mPa·s
308.15 K, 101 kPa, x2 = 0.1 | 0.7874 mPa·s and 0.7848 mPa·s
308.15 K, 101 kPa, x2 = 0.2 | 0.8915 mPa·s and 0.8893 mPa·s
308.15 K, 101 kPa, x2 = 0.3 | 1.036 mPa·s and 1.033 mPa·s
308.15 K, 101 kPa, x2 = 0.4 | 1.226 mPa·s and 1.224 mPa·s
308.15 K, 101 kPa, x2 = 0.5 | 1.468 mPa·s and 1.467 mPa·s
308.15 K, 101 kPa, x2 = 0.6 | 1.707 mPa·s and 1.702 mPa·s
308.15 K, 101 kPa, x2 = 0.7 | 1.856 mPa·s and 1.856 mPa·s
308.15 K, 101 kPa, x2 = 0.8 | 1.759 mPa·s and 1.757 mPa·s
308.15 K, 101 kPa, x2 = 0.9 | 1.335 mPa·s and 1.335 mPa·s
308.15 K, 101 kPa, x2 = 0.92 | 1.221 mPa·s and 1.22 mPa·s
308.15 K, 101 kPa, x2 = 0.94 | 1.1 mPa·s and 1.1 mPa·s
308.15 K, 101 kPa, x2 = 0.96 | 0.9743 mPa·s and 0.9712 mPa·s
308.15 K, 101 kPa, x2 = 0.98 | 0.8498 mPa·s and 0.8476 mPa·s
313.15 K, 101 kPa, x1 = 0.0254 | 0.856 mPa·s
313.15 K, 101 kPa, x1 = 0.027 | 0.8698 mPa·s
313.15 K, 101 kPa, x1 = 0.0555 | 1.011 mPa·s
313.15 K, 101 kPa, x1 = 0.058 | 1.067 mPa·s
313.15 K, 101 kPa, x1 = 0.0915 | 1.284 mPa·s
313.15 K, 101 kPa, x1 = 0.1355 | 1.433 mPa·s
313.15 K, 101 kPa, x1 = 0.14 | 1.392 mPa·s
313.15 K, 101.33 kPa, x1 = 0.0217 | 0.7737 mPa·s
313.15 K, 101.33 kPa, x1 = 0.0466 | 0.9108 mPa·s
313.15 K, 101.33 kPa, x1 = 0.0989 | 1.188 mPa·s
313.15 K, 101.33 kPa, x1 = 0.1478 | 1.404 mPa·s
313.15 K, 101.33 kPa, x1 = 0.2481 | 1.713 mPa·s
313.15 K, 101.33 kPa, x1 = 0.2859 | 1.729 mPa·s
313.15 K, 101.33 kPa, x1 = 0.3728 | 1.586 mPa·s
313.15 K, 101.33 kPa, x1 = 0.4919 | 1.351 mPa·s
313.15 K, 101.33 kPa, x1 = 0.5936 | 1.177 mPa·s
313.15 K, 101.33 kPa, x1 = 0.6889 | 1.005 mPa·s
313.15 K, 101.33 kPa, x1 = 0.7991 | 0.8768 mPa·s
313.15 K, 101.33 kPa, x1 = 0.8795 | 0.8096 mPa·s
318.15 K, 101 kPa, x1 = 0.027 | 0.796 mPa·s
318.15 K, 101 kPa, x1 = 0.058 | 0.9746 mPa·s
318.15 K, 101 kPa, x1 = 0.14 | 1.24 mPa·s
323.15 K, 101 kPa, x1 = 0.027 | 0.7318 mPa·s
323.15 K, 101 kPa, x1 = 0.058 | 0.8939 mPa·s
323.15 K, 101 kPa, x1 = 0.14 | 1.096 mPa·s
